Data reported in patent US5053070A, “Pyrimidine derivatives, preparation processes thereof, herbicide containing the same, and herbicidal compositions containing the same along with other active ingredient” (Mitsui Toatsu Chemicals, Incorporated, priority 1988, dated 1991).

Experiments:
Type in all cases: in vivo
Sagittaria pygmaea = assay: Treatment of soil under submerged condition, pre-emergence (Test 4); details: 30 g ai/a granule, 30 days later
Protocol: (§1) 1/5000-are Wagner pots were filled with soil. Seeds or tubers of barnyardgrass, Monochoria vaginalis, bulrush, Sagittaria pygmaea, Cyperus seroylnus and Eleocharis kuroguwai were seeded or planted under submerged condition. Two pairs of rice seedlings (2-3 leaf stage), which had been reared in advance, were transplanted to each pot and were allowed to germinate in a green house. Each pair consisted of two rice seedlings. One day later (before emergence of weeds), each pot was treated with a granule which had been prepared by processing a predetermined amount of the test composition in accordance with a similar method to the method described in Formulation Example 9. The state of emergence of weeds and the state of injury of rice were observed 30 days later.
(§2) In the table, the degrees of damages of the test plants and the degrees of injury of rice are shown in a similar manner to Example 2.

barnyardgrass [1] = assay: as above; details: 30 g ai/a granule, 30 days later
Protocol: as §1, §2

bulrush = assay: as above; details: 30 g ai/a granule, 30 days later
Protocol: as §1, §2

barnyardgrass [2] = assay: Upland foliar application test by mixed formulations (Test 7); details: Echinochloa crus-galli, 720 h, applied alone, 30th day, read-out: Herbicidal effects (%) Barnyardgrass Ea; for pest or weed control at 1000 g/ha: 1 kg/ha; for pest or weed control at 300 g/ha: 0.3 kg/ha
Protocol: (§3) Resin-made 1/10,000-are pots were filled with the soil of an upland field. Redroot pigweed, morningglories, johnsongrass, barnyardgrass and green foxtail were separately seeded and were allowed to germinate in a green house. When each plant grew to the stage of 2-3 leaves, an emulsion formulated from predetermined amounts of two test compounds of different kinds in a similar manner to the method described in Formulation Example 16 was diluted with water to a predetermined dilution rate and then sprayed at an application rate equal to 5 l per are onto the foliage of each plant by means of a pressure-operated ULV (ultra low volume) sprayer. Influence to the weeds were observed on the 30th day after the spray of the herbicides. In the table, each Ea means an acutally measured value of herbicidal activities when two kinds of herbicides were mixed. Each Ec is an expected value for herbicidal activities, calculated in accordance with the below-described calculation formula proposed by Colby et al. [Colby, S. R., Weed 15, 20-22 (1967)]. Ea>Ec indicates the existence of synergistic action while […] action. [formula] Ec: Growth inhibition rate (%) expected when Ingredient I and Ingredient II are mixed.
(§4) Ex: Growth inhibition rate (%) when treated with Ingredient I alone.
(§5) Ey: Growth inhibition rate (%) when treated with Ingredient II alone.

green foxtail = assay: as above; details: Setaria viridis, 720 h, applied alone, 30th day, read-out: Herbicidal effects (%) Green foxtail Ea; for pest or weed control at 1000 g/ha: 1 kg/ha; for pest or weed control at 300 g/ha: 0.3 kg/ha
Protocol: as §3, §4, §5

morningglories = assay: as above; details: Ipomoea, 720 h, applied alone, 30th day, read-out: Herbicidal effects (%) Morningglory Ea; for pest or weed control at 1000 g/ha: 1 kg/ha; for pest or weed control at 300 g/ha: 0.3 kg/ha
Protocol: as §3, §4, §5

redroot pigweed = assay: as above; details: Amaranthus retroflexus, 720 h, applied alone, 30th day, read-out: Herbicidal effects (%) Redrood pigweed Ea; for pest or weed control at 1000 g/ha: 1 kg/ha; for pest or weed control at 300 g/ha: 0.3 kg/ha
Protocol: as §3, §4, §5

SMILES: COC(=O)c1ccccc1Oc1nc(OC)cc(OC)n1 [A, reference compound]
- Herbicidal effects Sagittaria Pygmaea (Sagittaria pygmaea): 4 (6-10 (Severe damages))
- Herbicidal effects Barnyardgrass (barnyardgrass [1]): 5 (0-5 (Death))
- Herbicidal effects Bulrush (bulrush): 5 (0-5 (Death))

SMILES: COc1cc(OC)nc(Oc2ccccc2C=O)n1 [B, reference compound]
- Herbicidal effects Sagittaria Pygmaea (Sagittaria pygmaea): 5 (0-5 (Death))
- Herbicidal effects Barnyardgrass (barnyardgrass [1]): 3 (11-40 (Medium damages))
- Herbicidal effects Bulrush (bulrush): 3 (11-40 (Medium damages))

SMILES: CON=Cc1ccccc1Oc1nc(OC)cc(OC)n1 [Compound No. 1, O-methyl--2-(4,6-dimethoxy-2-pyrimidinyloxy)benzaldoxime]
- Herbicidal effects Sagittaria Pygmaea (Sagittaria pygmaea): 3 (11-40 (Medium damages))
- Herbicidal effects Barnyardgrass (barnyardgrass [1]): 2 (41-70 (Small damages))
- Herbicidal effects Bulrush (bulrush): 2 (41-70 (Small damages))

SMILES: C=CC(C)ON=Cc1ccccc1Oc1nc(OC)cc(OC)n1 (stereo not shown) [Compound No. 2]
- Herbicidal effects Sagittaria Pygmaea (Sagittaria pygmaea): 4 (6-10 (Severe damages))
- Herbicidal effects Barnyardgrass (barnyardgrass [1]): 5 (0-5 (Death))
- Herbicidal effects Bulrush (bulrush): 4 (6-10 (Severe damages))

SMILES: C=CCON=Cc1ccccc1Oc1nc(OC)cc(OC)n1 [Compound No. 4]
- Herbicidal effects Sagittaria Pygmaea (Sagittaria pygmaea): 4 (6-10 (Severe damages))
- Herbicidal effects Barnyardgrass (barnyardgrass [1]): 4 (6-10 (Severe damages))
- Herbicidal effects Bulrush (bulrush): 4 (6-10 (Severe damages))

SMILES: COc1cc(OC)nc(Oc2ccccc2C=NOCc2ccccc2)n1 [Compound No. 15]
- Herbicidal effects Sagittaria Pygmaea (Sagittaria pygmaea): 3 (11-40 (Medium damages))
- Herbicidal effects Barnyardgrass (barnyardgrass [1]): 4 (6-10 (Severe damages))
- Herbicidal effects Bulrush (bulrush): 1 (71-90 (Slight damages))
- pest or weed control at 1000 g/ha (barnyardgrass [2]): 50%
- pest or weed control at 1000 g/ha (green foxtail): 20%
- pest or weed control at 1000 g/ha (morningglories): 0%
- pest or weed control at 1000 g/ha (redroot pigweed): 50%

SMILES: COc1cc(OC)nc(Oc2ccccc2C=NOCc2ccc(Cl)cc2Cl)n1 [Compound No. 17]
- Herbicidal effects Sagittaria Pygmaea (Sagittaria pygmaea): 3 (11-40 (Medium damages))
- Herbicidal effects Barnyardgrass (barnyardgrass [1]): 4 (6-10 (Severe damages))
- Herbicidal effects Bulrush (bulrush): 4 (6-10 (Severe damages))

SMILES: COc1cc(OC)nc(Oc2ccccc2C=NOCC=Cc2cccc(Cl)c2)n1 [Compound No. 26, 0-(3-chlorocinnamyl)-2-(4,6-dimethoxy-2-pyrimidinyloxy)benzaldxime]
- Herbicidal effects Sagittaria Pygmaea (Sagittaria pygmaea): 5 (0-5 (Death))
- Herbicidal effects Barnyardgrass (barnyardgrass [1]): 4 (6-10 (Severe damages))
- Herbicidal effects Bulrush (bulrush): 4 (6-10 (Severe damages))

SMILES: C=C(C)CON=Cc1ccccc1Oc1nc(OC)cc(OC)n1 [compound 5]
- Herbicidal effects Sagittaria Pygmaea (Sagittaria pygmaea): 5 (0-5 (Death))
- Herbicidal effects Barnyardgrass (barnyardgrass [1]): 4 (6-10 (Severe damages))
- Herbicidal effects Bulrush (bulrush): 4 (6-10 (Severe damages))

SMILES: CC=CCON=Cc1ccccc1Oc1nc(OC)cc(OC)n1 [compound 8]
- Herbicidal effects Sagittaria Pygmaea (Sagittaria pygmaea): 4 (6-10 (Severe damages))
- Herbicidal effects Barnyardgrass (barnyardgrass [1]): 4 (6-10 (Severe damages))
- Herbicidal effects Bulrush (bulrush): 4 (6-10 (Severe damages))

SMILES: COc1cc(OC)nc(Oc2ccccc2C=NOCC=CCl)n1 [compound 11]
- Herbicidal effects Sagittaria Pygmaea (Sagittaria pygmaea): 4 (6-10 (Severe damages))
- Herbicidal effects Barnyardgrass (barnyardgrass [1]): 4 (6-10 (Severe damages))
- Herbicidal effects Bulrush (bulrush): 3 (11-40 (Medium damages))
- pest or weed control at 1000 g/ha (barnyardgrass [2]): 30%
- pest or weed control at 1000 g/ha (green foxtail): 10%
- pest or weed control at 1000 g/ha (morningglories): 0%
- pest or weed control at 1000 g/ha (redroot pigweed): 30%

SMILES: COc1cc(OC)nc(Oc2ccccc2C=NOCC=C(C)Cl)n1 [compound 12]
- Herbicidal effects Sagittaria Pygmaea (Sagittaria pygmaea): 4 (6-10 (Severe damages))
- Herbicidal effects Barnyardgrass (barnyardgrass [1]): 4 (6-10 (Severe damages))
- Herbicidal effects Bulrush (bulrush): 4 (6-10 (Severe damages))

SMILES: COc1cc(OC)nc(Oc2ccccc2C=NOCc2ccccc2Cl)n1 [compound 16]
- Herbicidal effects Sagittaria Pygmaea (Sagittaria pygmaea): 4 (6-10 (Severe damages))
- Herbicidal effects Barnyardgrass (barnyardgrass [1]): 4 (6-10 (Severe damages))
- Herbicidal effects Bulrush (bulrush): 3 (11-40 (Medium damages))

SMILES: COc1cc(OC)nc(Oc2ccccc2C=NOCc2ccc(Cl)c(Cl)c2)n1 [compound 18]
- Herbicidal effects Sagittaria Pygmaea (Sagittaria pygmaea): 4 (6-10 (Severe damages))
- Herbicidal effects Barnyardgrass (barnyardgrass [1]): 4 (6-10 (Severe damages))
- Herbicidal effects Bulrush (bulrush): 2 (41-70 (Small damages))

SMILES: COc1cc(OC)nc(Oc2ccccc2C=NOCc2ccc(C)cc2)n1 [compound 19]
- Herbicidal effects Sagittaria Pygmaea (Sagittaria pygmaea): 4 (6-10 (Severe damages))
- Herbicidal effects Barnyardgrass (barnyardgrass [1]): 4 (6-10 (Severe damages))
- Herbicidal effects Bulrush (bulrush): 4 (6-10 (Severe damages))

SMILES: COc1cc(OC)nc(Oc2ccccc2C=NOCc2cccc(C)c2)n1 [compound 20]
- Herbicidal effects Sagittaria Pygmaea (Sagittaria pygmaea): 4 (6-10 (Severe damages))
- Herbicidal effects Barnyardgrass (barnyardgrass [1]): 5 (0-5 (Death))
- Herbicidal effects Bulrush (bulrush): 4 (6-10 (Severe damages))
- pest or weed control at 300 g/ha (barnyardgrass [2]): 30%
- pest or weed control at 300 g/ha (green foxtail): 10%
- pest or weed control at 300 g/ha (morningglories): 10%
- pest or weed control at 300 g/ha (redroot pigweed): 30%

SMILES: COc1cc(OC)nc(Oc2ccccc2C=NOC(C)c2ccccc2)n1 (stereo not shown) [compound 21]
- Herbicidal effects Sagittaria Pygmaea (Sagittaria pygmaea): 3 (11-40 (Medium damages))
- Herbicidal effects Barnyardgrass (barnyardgrass [1]): 3 (11-40 (Medium damages))
- Herbicidal effects Bulrush (bulrush): 3 (11-40 (Medium damages))

SMILES: COc1cc(OC)nc(Oc2ccccc2C=NOCc2cccc3ccccc23)n1 [compound 22]
- Herbicidal effects Sagittaria Pygmaea (Sagittaria pygmaea): 3 (11-40 (Medium damages))
- Herbicidal effects Barnyardgrass (barnyardgrass [1]): 3 (11-40 (Medium damages))
- Herbicidal effects Bulrush (bulrush): 3 (11-40 (Medium damages))

SMILES: COc1cc(OC)nc(Oc2ccccc2C=NOCCc2ccccc2)n1 [compound 23]
- Herbicidal effects Sagittaria Pygmaea (Sagittaria pygmaea): 5 (0-5 (Death))
- Herbicidal effects Barnyardgrass (barnyardgrass [1]): 5 (0-5 (Death))
- Herbicidal effects Bulrush (bulrush): 4 (6-10 (Severe damages))

SMILES: CCCC=CCON=Cc1ccccc1Oc1nc(OC)cc(OC)n1 [compound 25]
- Herbicidal effects Sagittaria Pygmaea (Sagittaria pygmaea): 4 (6-10 (Severe damages))
- Herbicidal effects Barnyardgrass (barnyardgrass [1]): 5 (0-5 (Death))
- Herbicidal effects Bulrush (bulrush): 3 (11-40 (Medium damages))

SMILES: COc1cc(OC)nc(Oc2ccccc2C=NOCC=Cc2ccc(F)cc2)n1 [compound 29]
- Herbicidal effects Sagittaria Pygmaea (Sagittaria pygmaea): 3 (11-40 (Medium damages))
- Herbicidal effects Barnyardgrass (barnyardgrass [1]): 3 (11-40 (Medium damages))
- Herbicidal effects Bulrush (bulrush): 3 (11-40 (Medium damages))

SMILES: COc1cc(OC)nc(Oc2ccccc2C=NOCC=Cc2ccc(Cl)c(Cl)c2)n1 [compound 31]
- Herbicidal effects Sagittaria Pygmaea (Sagittaria pygmaea): 4 (6-10 (Severe damages))
- Herbicidal effects Barnyardgrass (barnyardgrass [1]): 3 (11-40 (Medium damages))
- Herbicidal effects Bulrush (bulrush): 3 (11-40 (Medium damages))

SMILES: COc1cc(OC)nc(Oc2ccccc2C=NOCC=Cc2c(F)cccc2F)n1 [compound 33]
- Herbicidal effects Sagittaria Pygmaea (Sagittaria pygmaea): 5 (0-5 (Death))
- Herbicidal effects Barnyardgrass (barnyardgrass [1]): 4 (6-10 (Severe damages))
- Herbicidal effects Bulrush (bulrush): 4 (6-10 (Severe damages))

SMILES: COc1cc(OC)nc(Oc2ccccc2C=NOCC=Cc2ccc(C(F)(F)F)cc2)n1 [compound 35]
- Herbicidal effects Sagittaria Pygmaea (Sagittaria pygmaea): 5 (0-5 (Death))
- Herbicidal effects Barnyardgrass (barnyardgrass [1]): 4 (6-10 (Severe damages))
- Herbicidal effects Bulrush (bulrush): 3 (11-40 (Medium damages))

SMILES: COc1cc(OC)nc(Oc2ccccc2C=NOCC=Cc2ccc(C)cc2)n1 [compound 36]
- Herbicidal effects Sagittaria Pygmaea (Sagittaria pygmaea): 5 (0-5 (Death))
- Herbicidal effects Barnyardgrass (barnyardgrass [1]): 4 (6-10 (Severe damages))
- Herbicidal effects Bulrush (bulrush): 4 (6-10 (Severe damages))

SMILES: CCc1ccc(C=CCON=Cc2ccccc2Oc2nc(OC)cc(OC)n2)cc1 [compound 37]
- Herbicidal effects Sagittaria Pygmaea (Sagittaria pygmaea): 4 (6-10 (Severe damages))
- Herbicidal effects Barnyardgrass (barnyardgrass [1]): 4 (6-10 (Severe damages))
- Herbicidal effects Bulrush (bulrush): 4 (6-10 (Severe damages))

SMILES: COc1cc(OC)nc(Oc2ccccc2C=NOCC=Cc2ccccc2Br)n1 [compound 40]
- Herbicidal effects Sagittaria Pygmaea (Sagittaria pygmaea): 5 (0-5 (Death))
- Herbicidal effects Barnyardgrass (barnyardgrass [1]): 5 (0-5 (Death))
- Herbicidal effects Bulrush (bulrush): 3 (11-40 (Medium damages))
- pest or weed control at 300 g/ha (barnyardgrass [2]): 20%
- pest or weed control at 300 g/ha (green foxtail): 10%
- pest or weed control at 300 g/ha (morningglories): 0%
- pest or weed control at 300 g/ha (redroot pigweed): 20%

SMILES: COc1cc(OC)nc(Oc2ccccc2C=NOCC=Cc2cccc(Cl)c2Cl)n1 [compound 41]
- Herbicidal effects Sagittaria Pygmaea (Sagittaria pygmaea): 5 (0-5 (Death))
- Herbicidal effects Barnyardgrass (barnyardgrass [1]): 5 (0-5 (Death))
- Herbicidal effects Bulrush (bulrush): 4 (6-10 (Severe damages))
